Bridge positions count the residues as written; N and C are the ends. Square brackets hold non-standard residues; d marks the D form. Peptide text beside a SMILES is read from it.
Assays:
[1] = tested on: HaLo-GFP-mito HeLa cells; assay: Chloroalkane penetration assay (CAPA); type: in vitro ADME; settings: CAPA, chloroalkane-tagged peptide, 4 h in Opti-MEM, 37 °C, chase HaLo-Tag TMR ligand 5 µM 15 min, flow cytometry; mean ± SEM of three independent experiments
Description: Following the addition of chloroacetyl-NHS to the N-terminal amino group, Cys(mmt) was selectively deprotected using 1% TFA, 5% triisopropylsilane in DCM (30 min, RT). Peptides were then cyclised on resin using 2% diisopropylethylamine in DMF overnight. Following cyclisation, Lys(ivDde) was deprotected using 2% hydrazine in DMF. The resin was then washed (3 x DCM, 3 x DMF) before on-resin coupling of chloroalkane carboxylic acid was performed on the lysine side chain using Hexafluorophosphate Azabenzotriazole Tetramethyl Uronium / diisopropylethylamine in DMF for 2 h. Global deprotection and purification were then carried out as described above. Chloroalkane carboxylate was synthesised as previously described.
CAPA assays were performed following the protocol published in ref. [51]. In brief, 40,000 HaLo- GFP-mito HeLa cells were seeded in a 96-well plate. Twenty-four hours later, cells were treated with different concentrations of chloroalkane-tagged peptides (100 µM to 200 nM for PADI4_3 and PADI4_3i and 50 µM to 100 nM for PADI4_11 and PADI4_11i) for 4 h in Opti-MEM. Media containing peptides was then removed, and cells were incubated with Opti-MEM (Gibco) for 15 min. After that time, the wash was removed, and cells were chased with HaLo-Tag TMR ligand (5 µM, Promega) in Opti-MEM for 15 min. The ligand was then removed, and cells were incubated with Opti-MEM for 30 min. Cells were then trypsinised, resuspended in phosphate-buffered saline (PBS) with 0.5% FBS and analysed using a benchtop flow cytometer (MACSQuant® VYB Flow cytometer Milteny Biotec). For each well, 10000 GFP positive single cells were analysed (gating workflow shown in Supplementary Fig. 18), and TMR mean fluorescence was normalised against a positive control (cells treated with HaLo-Tag TMR ligand but no peptide) and a negative control (non-treated cells). Analysis was performed using FlowJo (LCC) software and Prism GraphPad (Dotmatics). Data were presented as the average ± standard error of three independent replicates.

[2] = tested on: human neutrophils; assay: Time-lapse imaging and NET quantification (NETosis); type: cell-based; settings: 50 µM peptide, 5 µM Ca-Ionophore, 12 h
Description: Peripheral venous blood was isolated from consenting healthy adult volunteers in heparin tubes as previously described. Briefly, blood samples were on Histopaque 1119 (Sigma-Aldrich) and then centrifuged for 20 min at 800 × g. The plasma was collected and centrifuged for a second time for 20 min at 800 × g. The neutrophil layer was collected and washed in Hyclone Hank’s Balanced Salt Solution (HBSS) -Ca, -Mg, -Phenol red (GE Healthcare) supplemented with 10 mM HEPES (Invitrogen) 0.1% FBS and further purified with a discontinuous Percoll (GE Healthcare) gradient consisting of layers with densities of 85, 80, 75, 70 and 65% and centrifuged for 20 min at 800 × g. Neutrophil-enriched layers were then collected and washed, and neutrophil purity was assessed using flow cytometry.
About 5 × 10^4 human neutrophils were seeded in a black 96-well plate (PerkinElmer) in HyClone HBSS +Ca, +Mg, - Phenol red (GE Healthcare) containing 10 mM HEPES (Invitrogen). Cells were pre-incubated with the corresponding peptide for 60 min prior to the start of the experiment. DNA of live cells was stained with 4 µg/mL Hoechst (membrane permeable; Thermo Scientific) and DNA from dead cells with 0.2 µM Sytox-green (membrane impermeable; Invitrogen). Cells were stimulated with 100 nM PMA, 5 µM Ca-Ionophore or 0.1 mg/mL cholesterol crystals at the start of the microscope acquisition. Plates stimulated with cholesterol crystals were centrifuged at 300×g for 5 min at RT immediately prior to microscope acquisition. The cells were imaged on an inverted Nikon wide-field microscope system at 37 °C and CO2 (5%). Four fields of view were acquired per well every 15 mins for 10–15 h using a 40x objective. NETs were differentiated from necrotic cells by the size of the sytox signal using FIJI[86]. […] [85]. Area measurements were distributed into bins of increasing area sizes and plotted as a percentage of the total number of Sytox-green positive (dead) cells.

CP50 [1]: 2.0 ± 0.8 µM
Compound: N=C(N)NCCC[C@@H]1NC(=O)[C@H](CC(=O)O)NC(=O)[C@@H](Cc2ccc(O)cc2)NC(=O)CSC[C@@H](C(=O)NCC(N)=O)NC(=O)[C@H](Cc2ccc(O)cc2)NC(=O)[C@H](CCCCN)NC(=O)[C@@H]2CCCN2C(=O)[C@H](Cc2c[nH]cn2)NC(=O)[C@H](CCCNC(=N)N)NC(=O)[C@H](Cc2ccc(O)cc2)NC(=O)[C@H](Cc2c[nH]cn2)NC(=O)[C@H](Cc2c[nH]cn2)NC1=O [PADI4_3i] ({CH2CO}-[dY]DRHHYRHPKYCG-NH2; thioether N-12)
NETosis induced by calcium ionophore [2]: neither response was affected
